Test results as given in paper PMC12390126, “Human Skin Permeation of Ethoxy- and Propoxypropanol Commonly Found in Water-Based Products” (Toxics, 2025).

Experiments:
[1] = parameters: method as in earlier work; conditions: cited from earlier work
[2] = Mass balance of flow-through diffusion cell experiments; type: in vitro ADME, human; conditions: for Receptor Chamber (percentage of applied dose): remaining fluid at end
Method: A mass balance was performed only for flow-through diffusion cell experiments following the OECD guidelines, where the mean recovery should be 100 ± 10% [20]. The following components of the test system were analyzed to determine recovery: donor chamber, skin, and receptor chamber. The donor chamber was rinsed three times with 500 µL of water (donor chamber samples), the skin disk was sonicated three times for five minutes in water (skin samples), and the remaining fluid receptor chamber was collected (receptor chamber samples). If liquid was present in the donor chamber at the end of the experiment, it was also collected and analyzed with the donor chamber samples. PGE concentrations were quantified in all mass balance samples by GC-MS/MS, i.e., donor chamber rinsing water, water collected after sonication of skin, and remaining fluid receptor chamber. Mean concentrations of PGEE and PGPE were calculated for all cells in both conditions (neat or aqueous), and the results were reported as the percentage of the applied dose.

[3] = Workplace scenario: estimated internal dose and blood concentration after dermal exposure; parameters: species or system human; conditions: 8 h
Method: The cumulative amount of PGEE and PGPE in the receptor fluid (µg/cm^2, y-axis) was plotted separately over time (hours, x-axis), and the permeability rate (J), the lag time (Tlag), and the permeability coefficient (Kp) were determined from the generated permeability curve. J (µg/cm^2/h) was calculated as the slope of the steepest linear part of the curve (apparent steady state), and Tlag (h) as its x-axis intercept. Kp (cm/h) was calculated by dividing J with the chemical concentration applied to the skin when diluted in water and with the glycol ether’s density when applied neat. The maximal internal dose in the bloodstream was estimated using the permeability rate obtained for the experiments and calculated as follows:IDmean = J [µg/cm^2/h] × SA [cm^2] × t [h] × P,(1) where IDmean is the mean internal dose of PGEE or PGPE after skin exposure, J is the experimental permeability rate, SA represents the surface area exposed to the solvent, t is the time of exposure, and P represents the average percentage of PGEs in commercialized products. We used the J from the aqueous experiments because PGEs are mostly present in water-based products. The surface area exposed was set to 10.4 cm^2 for the hands alone, and 14.2 cm^2 when including the forearms. The total blood volume used for the blood concentration calculation was 5 L [29]. In Switzerland, paint products on the market for both professional and consumer uses contain, on average, 22.3% of PGEE and/or 5.9% of PGPE [17].
Recreating a workplace scenario, the mean internal dose after one workday for a worker in contact with products containing PGEE or PGPE was estimated based on our results. Mixing tasks are common in companies that use paint products, such as those in the construction and car repair industries. This task usually involves opening containers and mixing large quantities of paint. Workers’ hands, and occasionally forearms, are often contaminated by paint splashes and contact with various painting equipment. Based on our in vitro results and assuming dermal exposure only, after one 8 h workday, with a SA of 10.4 cm^2 and PGEs content of either 22.3% or 5.9%, the mean estimated internal dose for a worker performing a paint mixing task without wearing gloves is 8.3 mg of PGEE (see Equation (1)). This corresponds to a blood concentration of 1.7 mg/L. Under the same conditions, if the worker is exposed to products containing PGPE, the mean estimated internal dose after one workday is 0.9 mg, corresponding to a blood concentration of 0.2 mg/L. The addition of water to the mixture, for example, from perspiration or from the water-based product itself, increases the estimated internal dose to 19.9 mg (3.9 mg/L) for PGEE exposure and 4.1 mg (0.8 mg/L) for PGPE exposure. Some paint products may contain both PGEs mixed with other chemical substances; however, mixtures were not considered in this scenario. Further studies are necessary to investigate the effects of chemical mixtures on glycol ether skin permeation. Furthermore, PGEE and PGPE are volatile organic compounds, so workers can be exposed not only through direct skin contact but also via skin vapor absorption through the skin or inhalation. Therefore, the blood concentrations estimated in our workplace scenario would likely be higher under real working conditions involving all routes of absorption. Since no biological reference values are currently available for these compounds, it is not possible to estimate the potential risks associated with exposure at these blood concentrations. However, due to the high skin permeation of these compounds, workers and consumers must wear appropriate protective equipment to limit their exposure.

[4] = SA 10.4 cm^2, content 22.3% PGEE or 5.9% PGPE, blood volume 5 L, no added water
[5] = SA 10.4 cm^2, content 22.3% PGEE or 5.9% PGPE, dermal only, no added water
[6] = with addition of water to the mixture, SA 10.4 cm^2, 22.3% PGEE or 5.9% PGPE

Row | Structure (SMILES) | LogP [1] | Donor Chamber (percentage of applied dose) ([2]; 50:50 (aq)) [%] | Receptor Chamber over 24 h (sum of receptor fluid collected at different time points) ([2]; 50:50 (aq)) [%] | Recovery (percentage of applied dose) ([2]; 50:50 (aq)) [%] | Receptor Chamber (percentage of applied dose) ([2]; 50:50 (aq)) [%] | Donor Chamber (percentage of applied dose) ([2]; neat) [%] | Receptor Chamber over 24 h (sum of receptor fluid collected at different time points) ([2]; neat) [%] | Recovery (percentage of applied dose) ([2]; neat) [%] | Receptor Chamber (percentage of applied dose) ([2]; neat) [%] | estimated blood concentration [3, 4] [mg/L] | mean estimated internal dose after one workday [3, 5] [mg] | mean estimated internal dose after one workday [3, 6] [mg] | estimated blood concentration ([3]; with addition of water to the mixture, SA 10.4 cm^2, blood volume 5 L) [mg/L]
1 | CCOCC(C)O (stereo not shown) [PGEE] | 0.2 | 0.02 | 44.0 | 45.1 | 1.1 | 0.0003 | 16.8 | 17.3 | 0.5 | 1.7 | 8.3 | 19.9 | 
2 | CCCOCC(C)O (stereo not shown) [PGPE, propoxypropanol] | 0.7 | 0.05 | 24.1 | 24.6 | 0.4 | 0.18 | 9.4 | 9.9 | 0.3 | 0.2 | 0.9 | 4.1 | 0.8
